Measurements from US7067653B2, “Porphyrin Based neuton capture agents for cancer therapy” (The Regents of the University of California, priority 2000, dated 2006).

How the values were obtained:
tumor = conditions: drugs currently in BNCT clinical trials; cited from earlier work
U-373 MG cells = test: Dark toxicity assay in human glioblastoma U-373 MG cells; format: cell-based; conditions: exposure for 24 hours
Experimental: (§1) In vitro studies using rat 9L gliosarcoma cells, mouse B16 melanoma cells and human U-373MG glioblastoma cells have been performed.
(§2) Human glioblastoma U373 MG and mouse melanoma B16 cells were obtained from ATCC. The rat gliosarcoma line was kindly provided by the UCSF Brain Tumor Research Group. All cells were maintained in log phase monolayer cultures with RPMI 1640 supplemented with 10% fetal bovine and 2 mM glutamine.
(§3) Cells were seeded in 96-well culture plates, allowed to settle and attach for 24–48 hours, and then triplicate wells were exposed to two fold serial dilutions of test compounds at concentrations up to 250 μM. Compounds 4, 6, 10, and the Zn(II) complex of 10 in crystalline form were carefully weighed and dissolved in 100% DMSO to prepare stock solutions; subsequent dilutions were done directly into the culture medium just prior to administration to cells. After short term (2 hours) or long term (24–48 hours) exposure, cells were washed and wells refilled with fresh culture medium. For dark toxicity trials cells were allowed to proliferate for an additional 48–72 hours. For phototoxicity trials, washed cells were irradiated for 10 minutes with broad spectrum (600–700 nm) red light and then returned to an incubator for 48–72 hours.

9L cells = test: Dark toxicity assay in rat 9L gliosarcoma cells; format: cell-based; conditions: exposure for 24 hours
Experimental: as §1, §2, §3

Rat 9L tumor cells = test: Intracellular localization by confocal fluorescence microscopy, 9L cells; format: cell-based; conditions: 2 μM, 6 or 24 hours
Experimental: (§4) Confocal fluorescence microscopy was used to examine the intracellular localization of nido-carboranylporphyrin 4 in live cells. Rat 9L tumor cells and human normal keratinocyte line HaCaT were used in these studies. HaCaT cells were included in these particular experiments because they adhere and spread nicely on glass cover slips, thus facilitating the imaging process. Cells exposed to 2 μM concentration of porphyrin 4 for either 6 or 24 hours were examined at a magnification of 200× for intracellular fluorescence using excitation/emission wavelengths optimized for this type of compound. […] In both cases, 100% of the cells were labeled and the cells exposed to drug for 24 hours were slightly brighter than those exposed for 6 hours. […] No fluorescent signal was detectable in the plasma membranes of isolated individual cells nor in the intercellular junctions of confluent cells.

[1] = system: 9L, U-373 MG and B16 cells; test: Phototoxicity assay, broad spectrum (600–700 nm) red light; format: cell-based; conditions: irradiation with broad spectrum light 10 minutes
Experimental: as §2, §3
As observed for the dark toxicity experiments, the corresponding Zn(II) complex […] was about 20-fold less phototoxic. […] As with dark toxicity, B16 cells were more resistant that the other two cell types.

[2] = system: human normal keratinocyte line HaCaT; test: Intracellular localization by confocal fluorescence microscopy, HaCaT cells; format: cell-based; conditions: 2 μM, 6 or 24 hours
Experimental: as §4

Compound | tumor selectivity compared with the carboranylporphyrins (tumor to normal brain ratio) (tumor) | IC50 (U-373 MG cells) [µM] | IC50 (9L cells) [µM] | further results
N[C@@H](Cc1ccc(B(O)O)cc1)C(=O)O [BPA, L-4-dihydroxy-borylphenylalanine] | lower selectivities | – | – | –
disodium mercapto-closo-dodecaborate [BSH] | lower selectivities | – | – | –
meso-tetra[3-(1-methyl-nido-carboranyl)methylphenyl]porphyrin tetrapotassium salt [Compound 10] | – | ~150 | ~150 | –
meso-tetra[4-(1-methyl-nido-carboranyl)methylphenyl]porphyrin tetrapotassium salt [Compound 4] | – | ~150 | ~150 | cells labeled (Rat 9L tumor cells; 9L cells): 100%; intracellular localization (fluorescence) (Rat 9L tumor cells; live 9L cells): predominantly perinuclear; IC50 ([1]; 2 hours exposure): 50 µM; IC50 ([1]; 24 hours exposure): 1.5 µM; cells labeled ([2]; HaCaT cells): 100%; intracellular localization (fluorescence) ([2]; live HaCaT cells): predominantly perinuclear
